Experiments:
test panelists [1] = assay: Round table evaluation of sweetness intensity (SEV) against sucrose reference samples; format: in vivo; settings: 7 panelists, mean
Method: Round table evaluations were performed with 7 test panelists. Equal sweet 5 SEV concentrations in neutral pH water were made for Thaumatin II (purity greater than 90%), Rebaudioside A, and Rebaudioside M. These equal sweet solutions were also mixed at 50% of Thaumatin II and 50% Reb M or RebA and compared to the individual components. The components of the test compositions are described in the below tables. The mixed compositions were calculated using the Beidler mixture equation for the sweeteners. The Beidler mixture equation for sweeteners is as follows: [formula] The concentration of each component in the mixture in ppm is divided by SEV (c/R) and is plotted against concentration, c. The slope of the linear regression is the maximum SEV (Rmax). The y-intercept of the linear regression multiplied by Rmax is the half-maximal sweetness concentration, 1/K. Rmax and 1/K are the two parameters used in the Beidler equation. Mixtures were tasted in comparison to reference samples for the panelists to determine SEV values. References samples were 3%, 4%, 5%, 6%, 7%, and 8% sucrose in neutral pH water. The test samples were served in 2 ounce soufflé cups (approximately 60 ml) coded with 3-digit codes at room temperature. A two minute wait period between samples was enforced. Water and unsalted crackers was available for the panelists to clear their palates before and during testing. Results were collected for calculating approximate SEV level of each test sample.

test panelists [2] = assay: Round table qualitative assessment of quality of sweetness and undesirable attributes, scale of 1-10; format: in vivo; settings: for Quality of sweetness (higher better): scale 1-10, 10 = 5% sucrose, 1 = 500 ppm RebA; for Off taste (lower better): scale 1-10, 10 = 500 ppm RebA, 1 = 5% sucrose
Method: Round table evaluations were performed with 7 test panelists. Equal sweet 5 SEV concentrations in neutral pH water were made for Thaumatin II (purity greater than 90%), Rebaudioside A, and Rebaudioside M. These equal sweet solutions were also mixed at 50% of Thaumatin II and 50% Reb M or RebA and compared to the individual components. All solutions were coded and blinded from panelists. Panelists were asked to provide a qualitative assessment on a scale of 1-10 of the quality of sweetness (10 being the highest quality of sweetness) and undesirable attributes (10 being most undesirable) of each solution using a 5% sucrose and 500 ppm RebA solutions as controls. For the quality of sweetness, the score 10 was assigned to 5% sucrose. Vice versa, the score 1 was assigned to and 500 ppm RebA. For undesirable attributes, the scores 10 and 1 were assigned to 500 ppm RebA and 5% sucrose, respectively.

C=C1C[C@@]23CC[C@H]4[C@@](C)(CCC[C@@]4(C)C(=O)O[C@@H]4O[C@H](CO)[C@@H](O)[C@H](O)[C@H]4O)[C@@H]2CC[C@]1(O[C@@H]1O[C@H](CO)[C@@H](O)[C@H](O[C@@H]2O[C@H](CO)[C@@H](O)[C@H](O)[C@H]2O)[C@H]1O[C@@H]1O[C@H](CO)[C@@H](O)[C@H](O)[C@H]1O)C3 [Rebaudioside A]
Sweetness intensity determined, SEV (test panelists [1]; 260 ppm in neutral pH water): 4.8 SEV | Quality of sweetness (higher better) (test panelists [2]; 260 ppm in neutral pH water): 5.6 | Off taste (lower better) (test panelists [2]; 260 ppm in neutral pH water): 6.7

C=C1C[C@@]23CC[C@H]4[C@@](C)(CCC[C@@]4(C)C(=O)O[C@@H]4O[C@H](CO)[C@@H](O)[C@H](O[C@@H]5O[C@H](CO)[C@@H](O)[C@H](O)[C@H]5O)[C@H]4O[C@@H]4O[C@H](CO)[C@@H](O)[C@H](O)[C@H]4O)[C@@H]2CC[C@]1(O[C@@H]1O[C@H](CO)[C@@H](O)[C@H](O[C@@H]2O[C@H](CO)[C@@H](O)[C@H](O)[C@H]2O)[C@H]1O[C@@H]1O[C@H](CO)[C@@H](O)[C@H](O)[C@H]1O)C3 [Rebaudioside M]
Sweetness intensity determined, SEV (test panelists [1]; 155 ppm in neutral pH water): 5.3 SEV | Quality of sweetness (higher better) (test panelists [2]; 155 ppm in neutral pH water): 8.8 | Off taste (lower better) (test panelists [2]; 155 ppm in neutral pH water): 2.5 | Quality of sweetness and off taste, in words (test panelists [2]; equal sweet 5 SEV solutions and their 50%/50% mixtures in neutral pH water): very mild artificial off taste

B1: Thaumatin II: oligopeptide or protein of SEQ ID NO: 2; recombinant, purity greater than 90%, purified from transgenic Nicotiana tabacum plants (protein, listed as Thaumatococcus daniellii)
chain: ATFEIVNRCSYTVWAAASKGDAALDAGGRQLNSGESWTINVEPGTKGGKIWARTDCYFDDSGRGICRTGDCGGLLQCKRFGRPPTTLAEFSLNQYGKDYIDISNIKGFNVPMDFSPTTRGCRGVRCAADIVGQCPAKLKAPGGGCNDACTVFQTSEYCCTTGKCGPTEYSRFFKRLCPDAFSYVLDKPTTVTCPGSSNYRVTFCPTA
Sweetness intensity determined, SEV (test panelists [1]; 7 ppm in neutral pH water): 4.6 SEV | Quality of sweetness (higher better) (test panelists [2]; 7 ppm in neutral pH water): 6.5 | Off taste (lower better) (test panelists [2]; 7 ppm in neutral pH water): 4.7
